Source: paper PMC6277198, “Molecular basis for activation of lecithin:cholesterol acyltransferase by a compound that increases HDL cholesterol” (eLife, 2018)

Columns and labels:
[1] = tested on: LCAT Y51S, G71I, and Y51S/G71I variants; test: Differential scanning fluorimetry; format: binding, human
Experimental: Tm values were determined using an Applied Biosystems QuantStudio 7 Flex qPCR machine with two replicates performed at least in triplicate. LCAT at 0.05 mg mL^−1 was diluted into reaction buffer containing 5X Sypro Orange in a final volume of 10 μL in 384-well PCR plates. DMSO or compound 1 was added so that all reactions contained 3% DMSO. The reactions were run from 25–95 °C with a ramp rate of 0.03 °C s^−1. Tm values were determined as the derivative using Protein Thermal Shift software. Significance was determined using a one-way analysis of variance followed by Tukey’s multiple comparisons post-test in GraphPad Prism.

LPLA2 = biological target: T1, LPLA2 (Homo sapiens, UniProt Q8NCC3); test: Differential scanning fluorimetry; format: binding
T1 sequence (Q8NCC3 34-412): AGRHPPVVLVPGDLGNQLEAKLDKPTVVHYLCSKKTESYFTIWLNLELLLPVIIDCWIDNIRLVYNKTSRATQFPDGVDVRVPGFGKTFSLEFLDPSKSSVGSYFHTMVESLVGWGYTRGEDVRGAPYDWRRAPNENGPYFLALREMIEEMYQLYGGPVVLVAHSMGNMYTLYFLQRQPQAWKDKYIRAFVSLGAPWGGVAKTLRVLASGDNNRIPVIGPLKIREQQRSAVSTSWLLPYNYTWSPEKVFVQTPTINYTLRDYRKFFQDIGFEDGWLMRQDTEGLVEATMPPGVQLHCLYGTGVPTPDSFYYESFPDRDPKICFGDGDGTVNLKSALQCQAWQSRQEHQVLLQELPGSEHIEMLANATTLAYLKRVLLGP

WT LCAT = biological target: T2, WT LCAT (Homo sapiens, UniProt P04180); test: DHE acyltransferase assay with peptide-based HDLs; format: biochemical; parameters: hydrolysis of 4-methylumbelliferyl palmitate (MUP) by full-length LCAT; made in house; host or cells: HEK293F (transient transfection, secreted)
T2 sequence (P04180 25-440): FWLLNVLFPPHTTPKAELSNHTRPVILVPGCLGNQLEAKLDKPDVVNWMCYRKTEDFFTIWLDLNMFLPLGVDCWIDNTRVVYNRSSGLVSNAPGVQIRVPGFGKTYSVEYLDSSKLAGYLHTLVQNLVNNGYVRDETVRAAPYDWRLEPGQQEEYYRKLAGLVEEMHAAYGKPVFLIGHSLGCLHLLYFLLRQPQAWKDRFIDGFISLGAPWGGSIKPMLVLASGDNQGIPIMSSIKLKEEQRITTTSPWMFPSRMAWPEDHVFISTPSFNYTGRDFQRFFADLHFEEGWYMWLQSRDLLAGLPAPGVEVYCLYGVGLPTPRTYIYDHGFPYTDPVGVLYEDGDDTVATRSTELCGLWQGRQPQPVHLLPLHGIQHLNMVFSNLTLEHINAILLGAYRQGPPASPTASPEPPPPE
Experimental: Peptide-based HDLs were used in this assay as there is no difference between peptide HDLs and ApoA-I HDLs in both HDL binding and acyltransferase assays ([Manthei et al., 2017]). The peptide HDLs were made using the ESP24218 peptide with the sequence […] ([Dassuex et al., 1999]; [Li et al., 2015]) with a DPPC:POPC:DHE ratio of 47:47:6 as previously described ([Manthei et al., 2017]). The assay was performed in 384-well low volume black microplates (Corning 4514) with a total assay volume of 16 μL. In each reaction, LCAT was diluted in assay buffer to 15 μg mL^−1 in the presence of either 1% DMSO or 10 μM 2 with 1% DMSO. Compound 2 was used in this assay because it has lower background fluorescence than 1. The DHE HDLs were diluted in 1X PBS with 1 mM EDTA and 5 mM β-mercaptoethanol. 8 μL of the HDLs were added to the plate, and the reactions were initiated with 8 μL of LCAT, so that LCAT was assayed at 7.5 μg mL^−1 with and without 5 μM compound with a range of DHE concentrations from 0 to 50 μM. The reactions were stopped after 25 min at 37 °C with the addition of 4 μL of stop solution (1X PBS with 1 mM EDTA, 5 U mL^−1 cholesterol oxidase (COx), and 7% Triton X100). Following the addition of stop solution, the plates were incubated for another 60 min at 37 °C to allow for the COx to react. After the plates were re-equilibrated at room temperature, fluorescence was determined on a SpectraMax plate reader with excitation at 325 nm and emission at 425 nm, with a 420 nm cutoff. Reactions without LCAT were used for background subtraction, and reactions without LCAT and stop solution lacking COx were used to generate a standard curve for DHE. Reactions were performed in triplicate with three independent experiments per LCAT variant. Data were processed via background subtraction to remove excess fluorescence that results from the higher concentrations of DHE. […] Outliers were removed using automatic outlier elimination within Prism. For statistical analysis, the Vmax for each variant was compared to WT using a one-way analysis of variance followed by Tukey’s multiple comparisons post-test in GraphPad Prism.
To determine EC50 values, compound 2 was titrated from 0.004 to 10 μM, and the DHE concentration was set at 50 μM. LCAT was diluted in assay buffer and compound 2 dilutions were made with assay buffer containing 5.3% DMSO. 1.5 μL compound was added, then 6.5 μL LCAT, followed by 8 μL DHE. Dilutions were adjusted so that LCAT was assayed at 7.5 μg mL^−1, as above. All values were background subtracted to buffer with the same concentration of compound 2. A standard curve was included in one experiment with DHE from 0 to 50 μM in order to adjust the final fluorescence values to a rate by dividing by the slope of the line and time (25 min), as above. […]

Thermal stabilization (DSF) (LPLA2)	Fold activation, DHE acyltransferase activity (WT LCAT; WT LCAT, peptide-based HDLs)	acyltransferase rate (WT LCAT; WT LCAT, lowest concentration of compound 2 examined)	EC50 (WT LCAT; WT, compound 2 titrated from 0.004 to 10 μM, DHE 50 μM)	Vmax, DHE assay (WT LCAT; with 5 μM compound 2 (22 without))	SMILES	Increase of Tm compared to WT (DSF) [1]
not stabilized					N#Cc1cnc(N2CCC(c3n[nH]c4c3C(O)(C(F)(F)F)CC(=O)N4)CC2)cc1C(F)(F)F (stereo not drawn) [compound 1, 6-(4-(4-Hydroxy-6-oxo-4-(trifluoromethyl)−4,5,6,7-tetrahydro-1H-pyrazolo[3,4-b]pyridin-3-yl)piperidin-1-yl)−4-(trifluoromethyl)nicotinonitrile]	far less effective
	2.8 fold	11 µM/h	280 ± 90 nM	37 μM DHE-ester hr^−1	O=C1CC(O)(C(F)(F)F)c2c(C3CCN(c4cnc(C(F)(F)F)cn4)CC3)n[nH]c2N1 (stereo not drawn) [compound 2, 4-Hydroxy-4-(trifluoromethyl)−3-(1-(5-(trifluoromethyl)pyrazin-2-yl)piperidin-4-yl)−4,5-dihydro-1H-pyrazolo[3,4-b]pyridin-6(7H)-one]	
